Reference: patent US12522601B2, “1,3,4-oxadiazole derivative compounds as histone deacetylase 6 inhibitor, and the pharmaceutical composition comprising the same” (CHONG KUN DANG PHARMACEUTICAL CORP., priority 2020, dated 2026)

Key:
[1] = target: T1, human recombinant HDAC1 (Homo sapiens, UniProt Q13547); assay: In vitro HDAC enzyme activity inhibition assay, HDAC1 (HDAC Fluorimetric Drug Discovery Kit); assay type: biochemical; conditions: human recombinant HDAC1, Fluor de Lys-SIRT1 substrate 10 μM, 30° C. for 60 minutes
T1 construct: purchased Enzo Life Sciences, Inc. BML-SE456
Outline: (§1)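 Both HDAC1 and HDAC6 (human recombinant, 0.3 μg) tested identically: 10 μM fluorogenic Fluor de Lys-SIRT1 substrate, reaction 60 min at 30° C, developer added for 30 min. IC50 calculated from Ex 360/Em 460 signal over 5-fold serial dilutions.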

[2] = target: T2, human recombinant HDAC6 (Homo sapiens, UniProt Q9UBN7); assay: In vitro HDAC enzyme activity inhibition assay, HDAC6 (HDAC Fluorimetric Drug Discovery Kit); assay type: biochemical; conditions: for HDAC6 Selectivity (fold): HDAC6 versus HDAC1; for IC50: human recombinant HDAC6, same protocol as the HDAC1 test
T2 construct: purchased Calbiochem Inc. 382180
T2 sequence (Q9UBN7 1-1215): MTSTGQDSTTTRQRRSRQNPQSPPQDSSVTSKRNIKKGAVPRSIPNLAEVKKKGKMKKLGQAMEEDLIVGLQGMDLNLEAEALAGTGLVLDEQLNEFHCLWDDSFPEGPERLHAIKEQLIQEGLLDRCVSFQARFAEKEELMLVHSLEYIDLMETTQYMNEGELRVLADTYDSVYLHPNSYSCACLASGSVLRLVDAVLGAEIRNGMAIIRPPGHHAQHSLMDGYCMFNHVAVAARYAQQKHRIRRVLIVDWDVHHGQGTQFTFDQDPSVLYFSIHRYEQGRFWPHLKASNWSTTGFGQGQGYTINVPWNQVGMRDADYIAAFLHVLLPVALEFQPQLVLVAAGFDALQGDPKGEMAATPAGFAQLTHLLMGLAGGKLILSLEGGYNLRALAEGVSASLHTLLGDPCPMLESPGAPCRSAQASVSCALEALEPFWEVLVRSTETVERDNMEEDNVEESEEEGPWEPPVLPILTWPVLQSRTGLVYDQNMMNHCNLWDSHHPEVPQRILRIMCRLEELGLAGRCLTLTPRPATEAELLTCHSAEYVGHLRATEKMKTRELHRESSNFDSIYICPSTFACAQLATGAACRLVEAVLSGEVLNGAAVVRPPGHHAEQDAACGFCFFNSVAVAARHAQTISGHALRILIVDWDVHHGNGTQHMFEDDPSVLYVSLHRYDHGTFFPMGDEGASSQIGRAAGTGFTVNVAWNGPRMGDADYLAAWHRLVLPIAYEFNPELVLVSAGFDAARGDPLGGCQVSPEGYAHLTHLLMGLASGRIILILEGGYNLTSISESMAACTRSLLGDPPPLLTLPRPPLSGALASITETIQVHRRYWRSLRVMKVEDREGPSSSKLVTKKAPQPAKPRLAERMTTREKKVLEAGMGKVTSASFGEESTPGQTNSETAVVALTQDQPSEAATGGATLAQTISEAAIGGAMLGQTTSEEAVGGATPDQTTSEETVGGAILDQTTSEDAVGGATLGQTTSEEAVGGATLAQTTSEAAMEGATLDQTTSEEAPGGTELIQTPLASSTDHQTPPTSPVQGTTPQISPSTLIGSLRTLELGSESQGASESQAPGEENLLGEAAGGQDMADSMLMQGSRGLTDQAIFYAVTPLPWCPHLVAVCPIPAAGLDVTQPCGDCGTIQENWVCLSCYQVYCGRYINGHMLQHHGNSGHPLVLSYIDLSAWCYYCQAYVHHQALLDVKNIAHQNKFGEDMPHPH
Outline: as §1

T1 sequence (Q13547 whole entry): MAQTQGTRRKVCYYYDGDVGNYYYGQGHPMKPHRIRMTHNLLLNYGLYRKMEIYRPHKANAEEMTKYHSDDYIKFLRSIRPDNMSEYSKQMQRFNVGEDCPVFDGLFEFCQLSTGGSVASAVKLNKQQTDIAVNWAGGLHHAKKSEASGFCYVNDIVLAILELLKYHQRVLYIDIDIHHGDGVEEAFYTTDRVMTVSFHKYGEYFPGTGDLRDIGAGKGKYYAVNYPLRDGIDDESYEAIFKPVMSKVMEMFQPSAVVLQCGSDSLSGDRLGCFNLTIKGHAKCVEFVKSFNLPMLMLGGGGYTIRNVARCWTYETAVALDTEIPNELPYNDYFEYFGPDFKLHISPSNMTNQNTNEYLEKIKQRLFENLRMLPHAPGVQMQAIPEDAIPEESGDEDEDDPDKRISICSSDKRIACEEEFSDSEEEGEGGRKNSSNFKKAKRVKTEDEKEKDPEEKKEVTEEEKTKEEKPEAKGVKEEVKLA

Row | SMILES | IC50 [1] [nM] | HDAC6 Selectivity (fold) [2] [fold] | IC50 [2] [nM]
1 | O=C(C1CCN(C2COC2)CC1)N(Cc1cn2ccc(-c3nnc(C(F)F)o3)cc2n1)c1cccc(F)c1 [Compound 4142, N-((7-(5-(difluoromethyl)-1,3,4-oxadiazol-2-yl)imidazo[1,2-a]pyridin-2-yl)methyl)-N-(3-fluorophenyl)-1-(oxetan-3-yl)piperidine-4-carboxamide] | > 50000 | 234 | 214
2 | O=C(C1CCN(C2CCCCC2)CC1)N(Cc1cn2ccc(-c3nnc(C(F)F)o3)cc2n1)c1cccc(F)c1 [Compound 4143, 1-cyclohexyl-N-((7-(5-(difluoromethyl)-1,3,4-oxadiazol-2-yl)imidazo[1,2-a]pyridin-2-yl)methyl)-N-(3-fluorophenyl)piperidine-4-carboxamide] | > 50000 | 335 | 149
3 | O=C(C1CCN(C2CCOCC2)CC1)N(Cc1cn2ccc(-c3nnc(C(F)F)o3)cc2n1)c1cccc(F)c1 [Compound 4144, N-((7-(5-(difluoromethyl)-1,3,4-oxadiazol-2-yl)imidazo[1,2-a]pyridin-2-yl)methyl)-N-(3-fluorophenyl)-1-(tetrahydro-2H-pyran-4-yl)piperidine-4-carboxamide] | > 50000 | 206 | 243
4 | O=C(C1CCN(C2CCC(F)(F)CC2)CC1)N(Cc1cn2ccc(-c3nnc(C(F)F)o3)cc2n1)c1cccc(F)c1 [Compound 4145, 1-(4,4-difluorocyclohexyl)-N-((7-(5-(difluoromethyl)-1,3,4-oxadiazol-2-yl)imidazo[1,2-a]pyridin-2-yl)methyl)-N-(3-fluorophenyl)piperidine-4-carboxamide] | > 50000 | 217 | 230
5 | CC(=O)N1CCC(C(=O)N(Cc2cn3ccc(-c4nnc(C(F)F)o4)cc3n2)c2cccc(F)c2)CC1 [Compound 4146, 1-acetyl-N-((7-(5-(difluoromethyl)-1,3,4-oxadiazol-2-yl)imidazo[1,2-a]pyridin-2-yl)methyl)-N-(3-fluorophenyl)piperidine-4-carboxamide] | > 50000 | 206 | 243
6 | CCC(=O)N1CCC(C(=O)N(Cc2cn3ccc(-c4nnc(C(F)F)o4)cc3n2)c2cccc(F)c2)CC1 [Compound 4147, N-((7-(5-(difluoromethyl)-1,3,4-oxadiazol-2-yl)imidazo[1,2-a]pyridin-2-yl)methyl)-N-(3-fluorophenyl)-1-propionylpiperidine-4-carboxamide] | > 50000 | 126 | 396
7 | O=C(CO)N1CCC(C(=O)N(Cc2cn3ccc(-c4nnc(C(F)F)o4)cc3n2)c2cccc(F)c2)CC1 [Compound 4149, N-((7-(5-(difluoromethyl)-1,3,4-oxadiazol-2-yl)imidazo[1,2-a]pyridin-2-yl)methyl)-N-(3-fluorophenyl)-1-(2-hydroxyacetyl)piperidine-4-carboxamide] | > 50000 | 335 | 149
8 | O=C(C1CCC1)N1CCC(C(=O)N(Cc2cn3ccc(-c4nnc(C(F)F)o4)cc3n2)c2cccc(F)c2)CC1 [Compound 4150, 1-(cyclobutanecarbonyl)-N-((7-(5-(difluoromethyl)-1,3,4-oxadiazol-2-yl)imidazo[1,2-a]pyridine-2-yl)methyl)-N-(3-fluorophenyl)piperidine-4-carboxamide] | > 50000 | 234 | 214
9 | O=C(C1COC1)N1CCC(C(=O)N(Cc2cn3ccc(-c4nnc(C(F)F)o4)cc3n2)c2cccc(F)c2)CC1 [Compound 4151, N-((7-(5-(difluoromethyl)-1,3,4-oxadiazol-2-yl)imidazo[1,2-a]pyridin-2-yl)methyl)-N-(3-fluorophenyl)-1-(oxetane-3-carbonyl)piperidine-4-carboxamide] | > 50000 | 245 | 204
10 | O=C(C1CCN(C(=O)C(F)(F)F)CC1)N(Cc1cn2ccc(-c3nnc(C(F)F)o3)cc2n1)c1cccc(F)c1 [Compound 4152, N-((7-(5-(difluoromethyl)-1,3,4-oxadiazol-2-yl)imidazo[1,2-a]pyridin-2-yl)methyl)-N-(3-fluorophenyl)-1-(2,2,2-trifluoroacetyl)piperidine-4-carboxamide] | > 50000 | 245 | 204
11 | CS(=O)(=O)N1CCC(C(=O)N(Cc2cn3ccc(-c4nnc(C(F)F)o4)cc3n2)c2cccc(F)c2)CC1 [Compound 4153, N-((7-(5-(difluoromethyl)-1,3,4-oxadiazol-2-yl)imidazo[1,2-a]pyridin-2-yl)methyl)-N-(3-fluorophenyl)-1-(methylsulfonyl)piperidine-4-carboxamide] | > 50000 | 363 | 138
12 | COC(=O)N1CCC(C(=O)N(Cc2cn3ccc(-c4nnc(C(F)F)o4)cc3n2)c2cccc(F)c2)CC1 [Compound 4154, methyl 4-(((7-(5-(difluoromethyl)-1,3,4-oxadiazol-2-yl)imidazo[1,2-a]pyridin-2-yl)methyl)(3-fluorophenyl)carbamoyl)piperidine-1-carboxylate] | > 50000 | 218 | 229
13 | CN(C)C(=O)N1CCC(C(=O)N(Cc2cn3ccc(-c4nnc(C(F)F)o4)cc3n2)c2cccc(F)c2)CC1 [Compound 4155, N4-((7-(5-(difluoromethyl)-1,3,4-oxadiazol-2-yl)imidazo[1,2-a]pyridin-2-yl)methyl)-N4-(3-fluorophenyl)-N1,N1-dimethylpiperidine-1,4-dicarboxamide] | > 50000 | 142 | 352
14 | O=C(C1CCN(c2ccccn2)CC1)N(Cc1cn2ccc(-c3nnc(C(F)F)o3)cc2n1)c1cccc(F)c1 [Compound 4156, N-((7-(5-(difluoromethyl)-1,3,4-oxadiazol-2-yl)imidazo[1,2-a]pyridin-2-yl)methyl)-N-(3-fluorophenyl)-1-(pyridin-2-yl)piperidine-4-carboxamide] | > 50000 | 359 | 139
15 | O=C(C1CCN(c2ncccn2)CC1)N(Cc1cn2ccc(-c3nnc(C(F)F)o3)cc2n1)c1cccc(F)c1 [Compound 4157, N-((7-(5-(difluoromethyl)-1,3,4-oxadiazol-2-yl)imidazo[1,2-a]pyridin-2-yl)methyl)-N-(3-fluorophenyl)-1-(pyrimidin-2-yl)piperidine-4-carboxamide] | > 50000 | 306 | 163
16 | CN1CC(C(=O)N(Cc2cn3ccc(-c4nnc(C(F)F)o4)cc3n2)c2ccccc2)C1 [Compound 4158, N-((7-(5-(difluoromethyl)-1,3,4-oxadiazol-2-yl)imidazo[1,2-a]pyridin-2-yl)methyl)-1-methyl-N-phenylazetidine-3-carboxamide] | > 50000 | 112 | 447
17 | CCN1CC(C(=O)N(Cc2cn3ccc(-c4nnc(C(F)F)o4)cc3n2)c2ccccc2)C1 [Compound 4159, N-((7-(5-(difluoromethyl)-1,3,4-oxadiazol-2-yl)imidazo[1,2-a]pyridin-2-yl)methyl)-1-ethyl-N-phenylazetidine-3-carboxamide] | > 50000 | 118 | 425
18 | CC(C)N1CC(C(=O)N(Cc2cn3ccc(-c4nnc(C(F)F)o4)cc3n2)c2ccccc2)C1 [Compound 4160, N-((7-(5-(difluoromethyl)-1,3,4-oxadiazol-2-yl)imidazo[1,2-a]pyridin-2-yl)methyl)-1-isopropyl-N-phenylazetidine-3-carboxamide] | > 50000 | 247 | 202
